{
  "source": "ChEMBL document CHEMBL1139639",
  "about": "“A three-residue, continuous binding epitope peptidomimetic of ShK toxin as a Kv1.3 inhibitor” (Bioorg Med Chem Lett, 2005)",
  "molecular_target": "Potassium voltage-gated channel subfamily A member 3 (Mus musculus, UniProt P16390)",
  "sequence (P16390 whole entry)": "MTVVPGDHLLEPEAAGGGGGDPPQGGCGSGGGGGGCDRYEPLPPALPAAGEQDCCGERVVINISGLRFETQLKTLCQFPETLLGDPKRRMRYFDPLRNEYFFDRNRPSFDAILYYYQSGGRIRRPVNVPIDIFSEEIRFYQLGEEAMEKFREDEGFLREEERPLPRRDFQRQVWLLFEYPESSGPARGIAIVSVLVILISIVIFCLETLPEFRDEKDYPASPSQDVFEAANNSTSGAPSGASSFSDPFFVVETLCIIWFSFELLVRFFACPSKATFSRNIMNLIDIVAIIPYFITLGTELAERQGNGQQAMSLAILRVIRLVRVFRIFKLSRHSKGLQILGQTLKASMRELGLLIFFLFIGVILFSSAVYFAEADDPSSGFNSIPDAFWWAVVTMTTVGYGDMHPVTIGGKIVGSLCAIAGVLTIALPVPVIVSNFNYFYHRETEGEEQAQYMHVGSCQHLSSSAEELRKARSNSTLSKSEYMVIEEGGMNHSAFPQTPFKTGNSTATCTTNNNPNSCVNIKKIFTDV",
  "assay": "Effective concentration against murine voltage-gated potassium channel subunit Kv1.3 expressed in L929 cells using patch clamp",
  "assay_type": "cell-based",
  "note": "pEC50: −log10 of the molar value.",
  "data": [
    {"smiles": "NCCCCNC(=O)c1ccc(CN=C(N)N)c2ccn(CCc3ccccc3)c12", "values": [
      {"measurement": "pEC50", "value": 4.12}
    ]}
  ]
}
